Data on 14 molecules can be found in US7517840B2, “Optimized perfumery for rinse-off products” (Givaudan Fragrances Corporation, priority 2005, dated 2009).

Entries after “also recorded” stand apart in the source; their conditions may differ. Read-outs that look alike come from different tables or passages of the source.

For series [1] the following is noted: cited from earlier work.
For series [2] the following is noted: cited from earlier work; for exp ODT water: Booleans database; for Odor Detection Threshold: Table 24, Floral fragrance.
The nature of series [3]: Calculated pseudo-acceleration (Γ) of odorants in water, water-air and air. The source says:
In the analysis of the volatility of odorants, several variables are found to be important. First, the vapor pressure of the odorant is an important measure of its volatility. The product of the odorant's activity coefficient γ in the partition its mole fraction X and its pure vapor pressure value Pv, gives the odorant's relative vapor pressure. A second important factor for volatility is the diffusivity D12 of the odorant in the considered media: water, vapor phase and subsequently air.
Other important variables to consider are the molecular weight Mw, of the odorant and its density in the partition ρl and in the solvent vapor state ρv. The final variable to consider is an energy parameter in the partition state. The energy difference ε12=ε12(polar)−ε12o(non-polar) is proportional to the partition coefficient of an odorant in a polar solvent such as water, and a water immiscible solvent such as octanol, benzene and paraffin liquid. The energy ε12 is called the partition energy and can be correlated to the clogP value of odorants.
The five variables D12, Pv, Mw, ρv and ε12 and the three dimensional variables indicate that there can be 5−3=2 dimensional variables which describe Newton's law. The easiest separation is to break the acceleration vector into 2 dimensional quantities: a frequency or first order rate constant (1/time) and a velocity (distance/time) term.
The velocity group can be formed from the vapor pressure and density. Since pressure has units of mass*distance/distance^2*time^2, and density has units of mass/distance^3, the ratio of the two has units of velocity squared. The square root gives the desired velocity.
The first order rate constant can be formed from the variables Mw, D12 and ε12. Since the partition energy ε12 has dimensions of calories per mole (mass.length^2/mole.time^2) and the diffusivity coefficient D12 has a dimension of distance^2 per time, the ratio yields exactly a molecular weight unit per time t. The energy can be made dimensionless by dividing by the gas constant k and temperature T. The remaining variable D12 can be made to a frequency by dividing by a cross sectional area L^2. A molecular area calculated from the liquid molar volume could represent this area.
Pseudo acceleration values are also closely linked to the ability of an odorant to travel through headspace once it is airborne in addition to its ability to migrate through the water and water-air partitions.

The conditions of series [4]: Randebrock 1986; cited from earlier work.
Series [5] can be described thus: GC-MS headspace release profile of perfume in shampoo, 1/100 dilution in water. The settings on record: Tropical Fruit Perfume. The series is classed as physicochemical. Here is the method: Experimental Procedure: Individual odorant to be tested was added to 20 g of shampoo formulation (see formula below in Table 4) at 0.1%.
A 10 gram sample of formulation and fragrance was added to an empty 1000 ml pyrex beaker. This beaker was then filled with 1000 ml of 120 F tap water. Beaker with diluted shampoo sample was then immediately placed into a semi-enclosed plexiglass chamber.
Headspace Sampling: Once beaker was placed into chamber a Carboxan SPME field fiber was held at the top-side opening of the chamber over the beaker containing the sample. […] […] Top of plexiglass chamber was held open for entire 5 minutes of headspace sampling.

Turning to `CC1=CCC(C(C)(C)S)CC1` (centres unmarked), the “Boiling Point” value in series [1] (Table 33) is on record as 229 deg C. Also, the ODT in series [2] (Table 32, citrus note) was 50 ppb or less. Besides, the “release category by Γ” value in series [3] was “flash release”.

For `CCCCCCCCCCC=O` [1-undecanal], the “experimental odor detection threshold in air” value in series [4] is listed as 0.00054 mg/m^3.

As to `CCC=CCCC=CCO` [2,6 NONADIEN-1-OL], the ODT in series [2] (Table 26, cucumber-melon note) is given as 50 ppb or less. Also, the “odor detection threshold value in water” value in series [2] was 1 part per billion. Also, the “release category by Γ” value in series [3] is given as “sustained release”.

As to `CCC=CCCC=CC=O` [2,6-NONADIENAL], in series [2] (Table 26, cucumber-melon note), the ODT is 50 ppb or less. The “odor detection threshold values in water” value in series [2] was 0.01 ppb. The “release category by Γ” value in series [3] is given as “flash release”.

With `CCOC(=O)C(C)CC` (centres unmarked) [ETHYL 2-METHYLBUTYRATE, Ethyl 2-methylbutyrate], the “GC Abundance” value in series [5] (10 seconds) is given as 3000; in series [5] (20 seconds) it was 3100; in series [5] (30 seconds), 3100; in series [5] (40 seconds), 2000; in series [5] (50 seconds), 1500. For the same molecule, the “exp ODT water” value in series [2] is reported as 0.1-0.3 ppb. Also, the ODT in series [2] (Table 17, apple note compounds) is on record as 50 ppb or less. The “release category by Γ” value in series [3] is listed as “flash-release”.

For `CC(=O)C=CC1=C(C)CCCC1(C)C` [IONONE BETA PURE, 4-(2,6,6-Trimethyl-1-cyclohexen-1-yl)-3-buten-2-one], the “GC Abundance” value in series [5] (30 seconds) is given as 2000; in series [5] (40 seconds), 10000; in series [5] (50 seconds), 18000. In addition, in series [2], the “exp ODT water” value is 4-6 ppb. Further, the “Odor Detection Threshold” value in series [2] is 50 ppb or less.

Take `C=CC(C)(O)CCC=C(C)C` (centres unmarked) [LINALOOL, linalool]: the “GC Abundance” value in series [5] (10 seconds) stood at 500; in series [5] (20 seconds), 18000; in series [5] (30 seconds), 18000; in series [5] (40 seconds), 18000; in series [5] (50 seconds) it was 18000. Besides, the “Odor Detection Threshold” value in series [2] was 50 ppb or less.

`CCCC(C)C(=O)OCC` (centres unmarked) [MANZANATE, Ethyl 2-methylpentanoate]: the “GC Abundance” value was found to be 1000 in series [5] (10 seconds); 4000 in series [5] (20 seconds); 4000 in series [5] (30 seconds); 3000 in series [5] (40 seconds); 1500 in series [5] (50 seconds). In addition, the “exp ODT water” value in series [2] is 0.0030 ppb. In series [2] (Table 17, apple note compounds), the ODT is 50 ppb or less. The “odor detection threshold in water” value in series [2] (text b188) is given as 0.003 parts per billion.

In the case of `CC(C)=CC1CC(C)CCO1` (stereo not drawn) [ROSE OXIDE (HIGH CIS), Tetrahydro-4-methyl-2-(2-methylpropen-1-yl)pyran], the “GC Abundance” value in series [5] (20 seconds) was found to be 10000; in series [5] (30 seconds), 14000; in series [5] (40 seconds), 14000; in series [5] (50 seconds), 14000. Also, in series [2], the “exp ODT water” value is given as 0.5 ppb.

With `CC(C)=CCCC(C)=CCS` [THIOGERANIOL, 3,7-Dimethyl-2,6-octadien-1-thiol], the results for the “Boiling Point” value in series [1] (Table 33) and in series [1] were 250 deg C and 250 °C, respectively. Also, the ODT in series [2] (Table 32, citrus note) is listed as 50 ppb or less. Also, the “release category by Γ” value in series [3] is recorded as “sustained release”.

For `CCCCC/C=C/CCC=O` [TRANS-4-DECEN-1-AL], the “Boiling Point” value in series [1] (Table 33) is recorded as 200 deg C. Moreover, the ODT in series [2] (Table 32, citrus note) is 50 ppb or less. Besides, the “release category by Γ” value in series [3] is listed as “flash release”.

Take `CC(=O)OC1CCCCC1C(C)(C)C` (centres unmarked) [VERDOX]: the “GC Abundance” value amounted to 5000 in series [5] (20 seconds), 14000 in series [5] (30 seconds), 18000 in series [5] (40 seconds) and 20000 in series [5] (50 seconds). Besides, the “release category by Γ” value in series [3] is listed as “sustained release”.

Turning to `CC=CC(=O)C1C(C)=CCCC1(C)C` (stereo not drawn) [alpha-DAMASCONE, α-1-(2,6,6-Trimethyl-2-cyclohexen-1-yl)-2-buten-1-one], the “GC Abundance” value in series [5] (40 seconds) came out at 1000; in series [5] (50 seconds) it was 5000. For the same molecule, the “exp ODT water” value in series [2] is 1.5 ppb. Further, the ODT in series [2] (Table 17, apple note compounds) is recorded as 50 ppb or less.

Regarding `C=C(C)[C@H]1CC=C(C)CC1` [d-LIMONENE, d-1-Methyl-4-isopropenyl-1-cyclohexene], the “GC Abundance” value in series [5] (5 seconds) was determined as 7000; in series [5] (10 seconds), 7000; in series [5] (20 seconds), 7000; in series [5] (30 seconds), 7000; in series [5] (40 seconds), 5000; in series [5] (50 seconds) it was 4000. Moreover, the “release category by Γ” value in series [3] is reported as “flash release; also recorded: flash-release”.
